According to patent US20250115598A1 (Anaxis Pharma Pty Ltd, priority 2021, published 2025):
Read-outs that look alike come from different tables or passages of the source.

How the values were obtained:
human RIPK1 = human RIPK1 (Homo sapiens (Human), UniProt Q13546); test: KINOMEscan binding assay, human RIPK1; conditions: Table 21
In short: (§1)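 Assay principle: test compound competes with immobilized bead ligand for kinase; kinase retained, then eluted, is counted by qPCR. Conditions were 1% DMSO final with 11 compound concentrations in 3-fold steps, 30,000 nM top for most. The Hill equation with slope −1 gave Kd.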

human RIPK3 = human RIPK3 (Homo sapiens (Human), UniProt Q9Y572); test: KINOMEscan binding assay, human RIPK3; conditions: Table 21
Chain of human RIPK3 (Q9Y572 whole entry): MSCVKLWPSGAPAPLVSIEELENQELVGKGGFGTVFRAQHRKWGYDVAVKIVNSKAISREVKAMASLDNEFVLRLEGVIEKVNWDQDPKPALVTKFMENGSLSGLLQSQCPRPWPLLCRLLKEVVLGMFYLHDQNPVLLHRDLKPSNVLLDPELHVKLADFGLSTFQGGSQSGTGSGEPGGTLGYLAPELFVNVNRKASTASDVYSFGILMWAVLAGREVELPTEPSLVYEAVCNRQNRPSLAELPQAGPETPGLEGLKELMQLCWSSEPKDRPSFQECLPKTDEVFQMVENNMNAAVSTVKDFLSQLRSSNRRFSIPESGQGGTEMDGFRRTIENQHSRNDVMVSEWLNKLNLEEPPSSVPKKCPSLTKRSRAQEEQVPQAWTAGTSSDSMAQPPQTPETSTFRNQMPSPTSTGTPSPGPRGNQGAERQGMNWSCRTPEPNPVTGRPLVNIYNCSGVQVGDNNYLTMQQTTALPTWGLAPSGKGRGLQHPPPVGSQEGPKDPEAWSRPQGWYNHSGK
In short: as §1

[1] = test system: Immortalised Mouse Dermal Fibroblasts (MDFs); test: Cellular assay: inhibition of TSI induced necroptosis, CellTitre-Glo viability; conditions: Mus musculus, Fibroblast, MDF, 3 hours TSI cocktail, read-out: Inhibition of TSI-induced necroptosis (IC50 cell-based assay) in MDF
Protocol: Cellular Assay: Screening Compounds for Inhibition of TSI Induced Necroptosis in, 384 Well Plate Format.
• Cell Line ID: Immortalised Mouse Dermal Fibroblasts (MDFs). • Cell Concentration (cells/well): Final cell density is 2200 cells per well. • Cell growth medium: DMEM medium+7.4% Fetal Bovine Serum (FBS). Cells are cultured in Corning 150 cm^2 tissue culture flasks with vented caps at 37° C./10% CO2. • Incubation: Plates were incubated for 30 minutes following addition of compounds and then 3 hours incubation with death stimuli (TSI cocktail) at 37° C./10% CO2 in a humidified incubator. • Compound concentration: 36 μM starting concentration, 1:3 dilution, 10 point • DMSO final concentration (% v/v): 0.3%. Compounds in TSI Cocktail (T: TNF; S: Smac Mimetic; I: IDN-6556) and their Final Concentrations: • rhTNF (100 ng/ml) • Compound a (500 nM)—Smac Mimetic, Tetralogic and SYNthesis Med Chem • IDN-6556 (10 μM)—Selleckchem (S7775)
The cellular assay was carried out according to the following steps: • 1. Each well was prepared by sequential addition of: • a. 40 μL of cell suspension (5.5×10^4 cells/mL) was added to each well to provide a final cell concentration of 2,200 cells per well. • b. After 24 hours, DMSO (control; columns 1-2 and 23-24) or compound in DMSO—addition was performed using acoustic transfer of nL volumes of stock compound to give final test concentrations of 36, 12, 4, 1.3, 0.44, 0.148, 0.049, 0.016, 0.005 and 0.002 μM. All wells were backfilled with DMSO to a final total volume in the well of 100 nL. • c. Following compound/DMSO addition in step (b), Plates were incubated for 30 minutes at 37° C./10% CO2 in a humidified incubator and then 10 μL of 5×TSI cocktail (except to positive controls; columns 2 and 24) was added to each well. • 2. After 3 hours, plate was removed from the 37° C. incubator and equilibrated to room temperature for 15 minutes. • 3. 15 μL of room temperatured CellTitre-Glo2™ (Promega™) was added to each well. • 4. Shook plates for 2 minutes (˜600 rpm) and incubated at room temperature for 15 minutes to allow signal to stabilise. • 5. Read luminescence readout on a plate reader.
Percent viability was calculated for each compound according to equation (2):
[formula] • Wherein RawData is the readout of any cell containing a compound of the invention.
TA is the total activity provided by the luminescence readout from DMSO only wells (columns 2 and 24)=100% viability.
NSA is the non-specific activity provided by DMSO+TSI wells (columns 1 and 23)=0% viability • Curve fitting: 10-point titration curves are fitted with the 4-parameter logistic nonlinear regression model and the IC50 reported is the inflection point of the curve • Analysis: Data was loaded into Dotmatics™ and visualised using the Tibco@ • Spotfire™ software. 10 point titration curves were fitted with the 4 parameter logistic nonlinear regression model and the IC50 reported reflect the inflection point of the curve for curve fitting.
Assay involving the TSI cocktail (T: TNF; S: Smac mimetic; I: IDN-6556): TSI treatment ensures that cells specifically undergo necroptotic cell death. TNF activates the TNF receptor, Smac mimetic directs the signal away from proinflammatory signaling and toward the RIPK1/RIPK3-mediated cell death pathways, and IDN-6556 (Caspase inhibitor) ensures that the apoptotic response is blocked leaving only the programmed necrosis response. The compounds' activity (solution in DMSO) tested in this TSI-induced assay was evaluated by determining the number of viable cells in culture by measuring the amount of ATP present as measured by CelltiterGlo.

human MLKL (full length) = human MLKL (full length) (Homo sapiens (Human), UniProt Q8NB16); test: KINOMEscan binding assay, human MLKL (full length)
Chain of human MLKL (full length) (Q8NB16 whole entry): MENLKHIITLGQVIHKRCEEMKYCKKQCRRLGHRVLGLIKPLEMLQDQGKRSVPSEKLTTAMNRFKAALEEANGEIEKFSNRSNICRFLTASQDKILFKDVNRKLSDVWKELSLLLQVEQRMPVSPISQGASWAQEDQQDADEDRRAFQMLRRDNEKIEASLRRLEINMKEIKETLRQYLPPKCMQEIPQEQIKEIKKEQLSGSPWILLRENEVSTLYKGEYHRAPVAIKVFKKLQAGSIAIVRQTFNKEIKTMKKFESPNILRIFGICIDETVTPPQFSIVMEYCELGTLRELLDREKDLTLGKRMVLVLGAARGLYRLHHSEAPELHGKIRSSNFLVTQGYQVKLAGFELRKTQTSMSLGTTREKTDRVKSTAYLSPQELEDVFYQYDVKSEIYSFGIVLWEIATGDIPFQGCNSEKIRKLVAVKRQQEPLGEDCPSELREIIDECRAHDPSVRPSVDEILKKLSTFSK
In short: as §1

[2] = KINOMEscan, Table 21, read-out: Human MLKL (full-length) (KD)
[3] = hMLKL, Table 25, read-out: MLKL (KD)

Chain of human RIPK1 (Q13546 whole entry): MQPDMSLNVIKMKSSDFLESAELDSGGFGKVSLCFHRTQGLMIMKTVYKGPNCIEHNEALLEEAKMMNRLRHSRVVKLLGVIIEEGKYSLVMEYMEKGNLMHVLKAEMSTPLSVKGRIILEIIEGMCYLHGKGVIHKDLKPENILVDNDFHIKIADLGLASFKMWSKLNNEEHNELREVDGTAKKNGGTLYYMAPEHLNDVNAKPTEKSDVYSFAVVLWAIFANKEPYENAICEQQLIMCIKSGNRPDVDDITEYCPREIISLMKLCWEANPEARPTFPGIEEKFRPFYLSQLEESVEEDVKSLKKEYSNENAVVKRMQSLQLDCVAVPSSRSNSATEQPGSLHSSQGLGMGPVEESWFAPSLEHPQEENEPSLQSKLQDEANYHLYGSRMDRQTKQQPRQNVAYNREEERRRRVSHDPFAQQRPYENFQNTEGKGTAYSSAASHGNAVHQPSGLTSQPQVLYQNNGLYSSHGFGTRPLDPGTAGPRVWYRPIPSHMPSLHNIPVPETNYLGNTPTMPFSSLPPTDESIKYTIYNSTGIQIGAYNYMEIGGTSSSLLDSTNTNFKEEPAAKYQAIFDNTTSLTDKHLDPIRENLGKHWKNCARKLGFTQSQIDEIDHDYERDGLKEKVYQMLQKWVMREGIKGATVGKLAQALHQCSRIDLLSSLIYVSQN

| Compound | Kd (human RIPK1) [µM] | Kd (human RIPK3) [µM] | IC50 ([1]; Table 24) [µM] | Kd (human MLKL (full length); [2]) [µM] | Kd (human MLKL (full length); [3]) [µM] | IC50 ([1]; Table 27) [µM] |
| --- | --- | --- | --- | --- | --- | --- |
| C[C@H](Oc1cc(-c2nn(C)c3c(-c4cnn(C5CC6CCC(C5)N6CC(F)(F)F)c4)cnc(N)c23)ccc1NS(=O)(=O)C(F)F)c1ccc(F)cc1 (stereo partly drawn) [Compound 153, N-(4-(4-amino-1-methyl-7-(1-(8-(2,2,2-trifluoroethyl)-8-azabicyclo[3.2.1]octan-3-yl)-1H-pyrazol-4-yl)-1H-pyrazolo[4,3-c]pyridin-3-yl)-2-((S)-1-(4-fluorophenyl)ethoxy)phenyl)-1,1-difluoromethanesulfonamide] | > 10 | > 10 | < 1 | – | – | – |
| C[C@H](Oc1cc(-c2nn(C)c3c(C#CC4CCN(C)CC4)cnc(N)c23)ccc1NS(=O)(=O)C(F)F)c1ccc(F)cc1 [Compound 80, (S)—N-(4-(4-amino-1-methyl-7-((1-methylpiperidin-4-yl)ethynyl)-1H-pyrazolo[4,3-c]pyridin-3-yl)-2-(1-(4-fluorophenyl)ethoxy)phenyl)-1,1-difluoromethanesulfonamide] | > 10 | > 10 | < 1 | < 0.001 | – | – |
| C[C@H](Oc1cc(-c2nn(C)c3c(-c4cnn(C5CCN(C)C(C(F)(F)F)C5)c4)cnc(N)c23)ccc1NS(=O)(=O)C(F)F)c1ccc(F)cc1 (stereo partly drawn) [Compound 148, N-(4-(4-amino-1-methyl-7-(1-(1-methyl-2-(trifluoromethyl)piperidin-4-yl)-1H-pyrazol-4-yl)-1H-pyrazolo[4,3-c]pyridin-3-yl)-2-((S)-1-(4-fluorophenyl)eth-oxy)phenyl)-1,1-difluoromethane-sulfonamide] | > 10 | > 10 | < 1 | – | – | – |
| CC(=O)N1CCC(n2cc(-c3cnc(N)c4c(-c5ccc(NS(=O)(=O)C(F)F)c(O[C@@H](C)c6ccc(F)cc6)c5)nn(C)c34)cn2)CC1 [Compound 109, (S)—N-(4-(7-(1-(1-acetylpiperidin-4-yl)-1H-pyrazol-4-yl)-4-amino-1-methyl-1H-pyrazolo[4,3-c]pyridin-3-yl)-2-(1-(4-fluorophenyl)ethoxy)phenyl)-1,1-difluoromethanesulfonamide] | > 10 | > 10 | < 1 | < 0.001 | – | – |
| CC1C(n2cc(-c3cnc(N)c4c(-c5ccc(NS(=O)(=O)C(F)F)c(O[C@@H](C)c6ccc(F)cc6)c5)nn(C)c34)cn2)CN1C (stereo partly drawn) [Compound 147, N-(4-(4-amino-7-(1-(1,2-dimethylazetidin-3-yl)-1H-pyrazol-4-yl)-1-methyl-1H-pyrazolo[4,3-c]pyridin-3-yl)-2-((S)-1-(4-fluorophenyl)ethoxy)phenyl)-1,1-difluoromethanesulfonamide] | > 10 | > 10 | < 1 | – | – | – |
| Cc1ncsc1-c1ccc(CNC(=O)[C@@H]2C[C@@H](O)CN2C(=O)[C@@H](NC(=O)CCCCCn2cc(-c3cnc(N)c4c(-c5ccc(NS(=O)(=O)C(F)F)c(O[C@@H](C)c6ccc(F)cc6)c5)nn(C)c34)cn2)C(C)(C)C)cc1 [Compound 1066, (2S,4R)-1-[(2S)-2-[6-(4-{4-amino-3-[4-(difluoromethanesulfonamido)-3-[(1S)-1-(4-fluorophenyl)ethoxy]phenyl]-1-methyl-1H-pyrazolo[4,3-c]pyridin-7-yl}-1H-pyrazol-1-yl)hexanamido]-3,3-dimethylbutanoyl]-4-hydroxy-N-{[4-(4-methyl-1,3-thiazol-5-yl)phenyl]methyl}pyrrolidine-2-carboxamide] | – | – | – | – | < 0.01 | 1 to 10 |
| C[C@H](Oc1cc(-c2nn(C)c3c(-c4cnn(C5CCN(C(=O)c6cccc(C(=O)NC7CCC(=O)NC7=O)c6)CC5)c4)cnc(N)c23)ccc1NS(=O)(=O)C(F)F)c1ccc(F)cc1 (stereo partly drawn) [Compound 1084, 3-[4-(4-{4-amino-3-[4-(difluoromethanesulfonamido)-3-[(1S)-1-(4-fluorophenyl)ethoxy]phenyl]-1-methyl-1H-pyrazolo [4,3-c]pyridin-7-yl}-1H-pyrazol-1-yl)piperidine-1-carbonyl]-N-(2,6-dioxopiperidin-3-yl)benzamide] | – | – | – | – | < 0.01 | 1 to 10 |
